Test results: patent EP4603105A1, “PHARMACEUTICAL COMPOSITION CONTAINING CYCLIC COMPOUND HAVING SELECTIVE KRAS INHIBITORY EFFECT AGAINST HRAS AND NRAS” (CHUGAI SEIYAKU KABUSHIKI KAISHA, priority 2022, dated 2024)
Where two headings read alike, the source gives them in different places.

How the values were obtained:
[1] = molecular target: GDP-bound KRAS wild-type protein (Homo sapiens, UniProt P01116); test: Binding to KRAS by surface plasmon resonance (SPR), dissociation constant KD
How it was run: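 Recombinant RAS proteins bearing a biotinylated Avi tag and loaded with GDP served as the captured ligand, recaptured fresh every cycle. Binding responses were referenced to an uncoated surface and a buffer-only blank cycle. Dissociation constants were obtained by 1:1 model fitting at 30°C.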

[2] = molecular target: GDP-bound NRAS wild-type protein (Homo sapiens, UniProt P01111); test: Binding to NRAS by surface plasmon resonance (SPR), KD and KD ratio to KRAS
How it was run: (§1)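 GDP-bound biotin-Avi RAS captured at ~100–300 RU, 30°C, pH 7.4 HBS containing 10 µM GDP, 10 mM MgCl2, 1 mM DTT, 0.01% Tween 20 and 4% DMSO. KD by 1:1 fitting.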

[3] = molecular target: HRAS wild-type protein (Homo sapiens, UniProt P01112); test: Binding to HRAS by surface plasmon resonance (SPR), KD and KD ratio to KRAS
How it was run: as §1

[4] = tested on: human lung cancer strain NCI-H441; test: NCI-H441 cell proliferation inhibitory activity (CellTiter-Glo, 4 days); format: cell-based; conditions: read-out: NCl-H441 IC50
How it was run: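 Readout: […] after the ATP-based reagent. Compound: serial dilutions in dimethyl sulfoxide.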

[5] = ratio of KD for GDP-bound NRAS wild-type protein to KD for KRAS
[6] = ratio of KD for HRAS wild-type protein to KD for KRAS
[7] = Single Cycle Kinetics, 1:1 binding model
[8] = ratio of KD with respect to GDP-bound NRAS wild-type protein to KD with respect to KRAS
[9] = ratio of KD with respect to HRAS wild-type protein to KD with respect to KRAS
[10] = 50% proliferation inhibitory concentration, four days

GDP-bound KRAS wild-type protein, sequence (P01116 1-188 isoform P01116-2): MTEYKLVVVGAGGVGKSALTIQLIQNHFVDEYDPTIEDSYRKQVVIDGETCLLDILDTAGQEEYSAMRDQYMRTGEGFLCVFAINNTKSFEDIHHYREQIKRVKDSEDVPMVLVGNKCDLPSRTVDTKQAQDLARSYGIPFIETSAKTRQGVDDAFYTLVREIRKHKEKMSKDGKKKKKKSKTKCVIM
HRAS wild-type protein, sequence (P01112 whole entry): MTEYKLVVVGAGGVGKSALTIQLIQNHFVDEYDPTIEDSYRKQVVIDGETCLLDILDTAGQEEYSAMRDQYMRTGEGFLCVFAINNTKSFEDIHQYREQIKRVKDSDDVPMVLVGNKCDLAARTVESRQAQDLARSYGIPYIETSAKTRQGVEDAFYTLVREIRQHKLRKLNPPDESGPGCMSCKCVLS
GDP-bound NRAS wild-type protein, sequence (P01111 whole entry): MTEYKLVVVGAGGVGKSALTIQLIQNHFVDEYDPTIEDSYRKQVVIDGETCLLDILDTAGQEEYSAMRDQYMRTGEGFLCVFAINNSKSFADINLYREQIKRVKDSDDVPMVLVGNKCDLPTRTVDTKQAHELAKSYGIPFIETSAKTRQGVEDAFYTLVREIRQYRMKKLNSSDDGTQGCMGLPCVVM

Kd ([1]; Single Cycle Kinetics) [nM]	IC50 ([4]; NCI-H441 cells, 4 days) [nM]	Kd [1, 7] [nM]	IC50 [4, 10] [nM]	Kd ([1]; 1:1 binding model) [nM]	Structure (SMILES)	NRAS /KRAS [2, 5]	HRAS /KRAS [3, 6]	NRAS /KRAS [2, 8]	HRAS /KRAS [3, 9]
1.4	12.9				CCO[C@@H]1C[C@H]2C(=O)OC3(CCC3)C(=O)N(C)[C@@H](C3CCCC3)C(=O)N(C)[C@H](C(=O)N(C)C)CC(=O)N(C)[C@@H]([C@H](C)OC)C(=O)N[C@@H]([C@@H](C)CC)C(=O)N(C3CC3)CC(=O)N(C)[C@H]3C/C=C\CCN(C3=O)[C@@H](Cc3ccc(C)cc3)C(=O)N(C)CC(=O)N[C@@H](CCc3ccc(C(F)(F)F)c(OC)c3)C(=O)N2C1 [PP3396]	A (a compound having 10 or more and less than 20 is denoted as A)	B (a compound having 3 or more and less than 10 is denoted as B)		
		0.3	51.2		CCCCCC[C@H]1C(=O)N[C@@H]([C@@H](C)CC)C(=O)N(C)CC(=O)N(C)[C@H]2C/C=C\CCN(C2=O)[C@@H](Cc2ccc(C(F)(F)F)cc2)C(=O)N(C)CC(=O)N[C@@H](CCc2ccc(Cl)c(Cl)c2)C(=O)N2C[C@H](OCC)C[C@H]2C(=O)NC2(CCC2)C(=O)N(C)[C@@H](C2CCCC2)C(=O)N(C)[C@H](C(=O)N(C)C)CC(=O)N1C [PP1252]			AA (a compound having 20 or more is denoted as AA)	A (a compound having 10 or more and less than 20 is denoted as A)

Further lines, the compound ahead of its results:

Structure (SMILES)	Kd ([1]; Single Cycle Kinetics) [nM]	IC50 ([4]; NCI-H441 cells, 4 days) [nM]	Kd [1, 7] [nM]	IC50 [4, 10] [nM]	Kd ([1]; 1:1 binding model) [nM]	NRAS /KRAS [2, 5]	HRAS /KRAS [3, 6]	NRAS /KRAS [2, 8]	HRAS /KRAS [3, 9]
CCC[C@H]1C(=O)N[C@@H](C2CCCC2)C(=O)N(C)CC(=O)N(C)[C@H]2C/C=C\CCN(C2=O)[C@@H](Cc2ccc(C(F)(F)F)cc2)C(=O)N(C)CC(=O)N[C@@H](CCc2cc(F)c(C(F)(F)F)c(F)c2)C(=O)N2CC3(CC3)C[C@H]2C(=O)N(C)C2(CCC2)C(=O)N(C)[C@@H](C(CC)CC)C(=O)N(C)[C@H](C(=O)N(C)C)CC(=O)N1C [PP3305]	0.68	20.3				AA (a compound having 20 or more is denoted as AA)	A (a compound having 10 or more and less than 20 is denoted as A)		
CCO[C@@H]1C[C@H]2C(=O)NC3(CCC3)C(=O)N(C)[C@@H](C3CCCC3)C(=O)N(C)[C@H](C(=O)N3CCOCC3)CC(=O)N(C)[C@@H](CC3CC3)C(=O)N[C@@H]([C@@H](C)CC)C(=O)N(C)CC(=O)N(C)[C@H]3CCCCCN(C3=O)[C@@H](Cc3ccc(F)cc3)C(=O)N(C)CC(=O)N[C@@H](CCc3cc(F)c(C(F)(F)F)c(F)c3)C(=O)N2C1 [PP1178]			0.16	26.3				B (a compound having 3 or more and less than 10 is denoted as B)	B (a compound having 3 or more and less than 10 is denoted as B)
CCC[C@H]1C(=O)N[C@@H]([C@@H](C)CC)C(=O)N(C2CC2)CC(=O)N(C)[C@H]2C/C=C\CCN(C2=O)[C@@H](Cc2ccc(C)cc2)C(=O)N(C)CC(=O)N[C@@H](CCc2ccc(Cl)c(Cl)c2)C(=O)N2C[C@H](OC(C)C)C[C@H]2C(=O)NC2(CC(C)(C)C2)C(=O)N(C)[C@@H](C2CCCC2)C(=O)N(C)[C@H](C(=O)N(C)C)CC(=O)N1C [PP2571]		76.1			1	A (a compound having 10 or more and less than 20 is denoted as A)	A (a compound having 10 or more and less than 20 is denoted as A)		
CCCO[C@@H]1C[C@H]2C(=O)NC3(CC(C)(C)C3)C(=O)N(C)[C@@H](C3CCCC3)C(=O)N(C)[C@H](C(=O)N(C)CC)CC(=O)N[C@@H](COCC)C(=O)N[C@@H]([C@@H](C)CC)C(=O)N(C3CC3)CC(=O)N(C)[C@H]3C/C=C\CCN(C3=O)[C@@H](Cc3ccc(C)cc3)C(=O)N(C)CC(=O)N[C@@H](CCc3ccc(C(F)(F)F)c(OC)c3)C(=O)N2C1 [PP3437]	1.3	51.6				AA (a compound having 20 or more is denoted as AA)	A (a compound having 10 or more and less than 20 is denoted as A)		
CCC[C@H]1C(=O)N[C@@H](C2CCCC2)C(=O)N(C)CC(=O)N(C)[C@H]2C/C=C\CCN(C2=O)[C@@H](Cc2ccc(C)cc2)C(=O)N(C)CC(=O)N[C@@H](CCc2cc(F)c(C(F)(F)F)c(F)c2)C(=O)N2CC3(CC3)C[C@H]2C(=O)NC2(CCC2)C(=O)N(C)[C@@H](C(CC)CC)C(=O)N(C)[C@H](C(=O)N(C)C)CC(=O)N1C [PP3428]	0.77	18.7				A (a compound having 10 or more and less than 20 is denoted as A)	A (a compound having 10 or more and less than 20 is denoted as A)		
